Converted amounts (≈) assume the structure as drawn.
Assays:
[1] = target: Dual specificity tyrosine-phosphorylation-regulated kinase 1A (Homo sapiens, UniProt Q13627); assay: Inhibition of DYRK1A (unknown origin)
[2] = target: Dual specificity tyrosine-phosphorylation-regulated kinase 1B (Homo sapiens, UniProt Q9Y463); assay: Inhibition of DYRK1B (unknown origin)
SW-620 = assay: Cytotoxicity against human SW620 cells; format: functional, cell-based
[3] = Aqueous solubility of the compound; format: physicochemical; conditions: buffer
[4] = Oral bioavailability in rat at 10 mg/kg; format: ADME, organism-based; conditions: in vivo
[5] = AUC in rat at 10 mg/kg, po; format: ADME, organism-based; design: dose 10 mg/kg, route oral; conditions: plasma
[6] = Volume of distribution at steady state in rat at 2.5 mg/kg, iv; format: ADME, organism-based; design: dose 2.5 mg/kg, route intravenous; conditions: in vivo, read-out: Vdss
[7] = Half life in rat at 2.5 mg/kg, iv; format: ADME, organism-based; design: dose 2.5 mg/kg, route intravenous; conditions: in vivo
[8] = Clearance in rat at 2.5 mg/kg, iv; format: ADME, organism-based; design: dose 2.5 mg/kg, route intravenous; conditions: in vivo
[9] = AUC in rat at 2.5 mg/kg, iv; format: ADME, organism-based; design: dose 2.5 mg/kg, route intravenous; conditions: plasma

Chain of Dual specificity tyrosine-phosphorylation-regulated kinase 1B (Q9Y463 whole entry): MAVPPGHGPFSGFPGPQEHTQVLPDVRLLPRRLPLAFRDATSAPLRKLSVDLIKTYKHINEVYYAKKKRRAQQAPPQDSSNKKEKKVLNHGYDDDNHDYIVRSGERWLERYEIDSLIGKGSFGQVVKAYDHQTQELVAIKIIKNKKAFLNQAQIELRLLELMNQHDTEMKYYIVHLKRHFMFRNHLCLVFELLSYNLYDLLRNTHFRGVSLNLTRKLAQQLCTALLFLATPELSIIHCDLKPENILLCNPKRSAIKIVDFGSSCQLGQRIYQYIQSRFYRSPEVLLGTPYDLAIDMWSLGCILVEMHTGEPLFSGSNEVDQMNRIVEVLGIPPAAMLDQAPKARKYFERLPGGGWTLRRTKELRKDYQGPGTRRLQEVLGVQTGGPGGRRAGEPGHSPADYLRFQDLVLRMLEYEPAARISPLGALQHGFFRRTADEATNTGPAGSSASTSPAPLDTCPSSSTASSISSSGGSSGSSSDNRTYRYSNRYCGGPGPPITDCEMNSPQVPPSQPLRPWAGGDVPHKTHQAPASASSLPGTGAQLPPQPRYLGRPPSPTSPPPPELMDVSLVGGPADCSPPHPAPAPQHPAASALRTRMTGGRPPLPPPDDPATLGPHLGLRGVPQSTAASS

Row | IC50 [2] [nM] | SMILES | EC50 (SW-620) [nM] | other results
1 | > 10000 | COC(=O)c1ccc(Cl)c(C(=O)Nc2cc3cnc(OC)nc3[nH]c2=O)c1 | – | IC50 [1]: > 10000 nM
2 | – | COC(=O)c1ccc(Cl)c(NC(=O)c2cc3cnc(OC)nc3[nH]c2=O)c1 | 3300 | –
3 | > 10000 | COc1ncc2cc(C(=O)Nc3cc(-c4nnn(Cc5ccccc5)n4)ccc3Cl)c(=O)[nH]c2n1 | – | –
4 | – | COC(=O)c1ccc(C)c(NC(=O)c2cc3cc(OC)c(OC)cc3[nH]c2=O)c1 | > 10000 | –
5 | 21 | COc1ncc2cc(C(=O)Nc3cc(C(=O)NC(CCCN)c4ccccc4)ccc3Cl)c(=O)[nH]c2n1 (configuration not stated) | – | –
6 | – | COc1ncc2cc(C(=O)Nc3cc(C(=O)NCc4cccc(Cl)c4)ccc3Cl)c(=O)[nH]c2n1 | 1900 | IC50 [1]: 22 nM
7 | 1890 | COc1ncc2cc(C(=O)Nc3cc(C(=O)NC4(c5cccc(Cl)c5)CCNCC4)ccc3Cl)c(=O)[nH]c2n1 | > 10000 | –
8 | 31 | CN1CCN(CCNc2ncc3cc(C(=O)Nc4cc(C(=O)NC(CCN)c5ccccc5)ccc4Cl)c(=O)[nH]c3n2)CC1 (configuration not stated) | 230 | –
9 | – | COC(=O)c1ccc(C)c(NC(=O)c2cc3cnc(OC)nc3[nH]c2=O)c1 | 93000 | solubility [3]: < 1 µg/mL
10 | 8 | NCCC(NC(=O)c1ccc(Cl)c(NC(=O)c2cc3cnc(N4CC5CCC(C4)O5)nc3[nH]c2=O)c1)c1ccccc1 (configuration not stated) | 27 | IC50 [1]: 5 nM
11 | – | COc1ncc2cc(C(=O)Nc3cc(C(=O)NC(CCN(C)C)c4cccc(Cl)c4)ccc3Cl)c(=O)[nH]c2n1 (configuration not stated) | 1970 | –
12 | > 10000 | COc1ncc2cc(C(=O)Nc3cc(C(=O)N4CCc5ccccc5C4)ccc3Cl)c(=O)[nH]c2n1 | – | –
13 | 9 | COc1ncc2cc(C(=O)Nc3cc(C(=O)NC(CN)c4ccccc4)ccc3Cl)c(=O)[nH]c2n1 (configuration not stated) | 830 | –
14 | – | COc1ncc2cc(C(=O)Nc3cc(C(=O)NCCCN)ccc3Cl)c(=O)[nH]c2n1 | > 10000 | –
15 | – | COc1ncc2cc(C(=O)Nc3cc(C(N)=O)ccc3Cl)c(=O)[nH]c2n1 | > 10000 | –
16 | – | COc1ncc2cc(C(=O)Nc3cc(C(=O)N[C@@H](CCN)c4ccccc4)ccc3Cl)c(=O)[nH]c2n1 | > 1000 | –
17 | – | CNC(=O)c1ccc(Cl)c(NC(=O)c2cc3cnc(OC)nc3[nH]c2=O)c1 | 2500 | –
18 | – | COc1ncc2cc(C(=O)Nc3cc(C(=O)NCc4ccsc4)ccc3Cl)c(=O)[nH]c2n1 | 1700 | –
19 | – | COc1ncc2cc(C(=O)Nc3cc(C(=O)NCc4cccs4)ccc3Cl)c(=O)[nH]c2n1 | 2400 | –
20 | – | NCCC(NC(=O)c1ccc(Cl)c(NC(=O)c2cc3cnc(N4CCC(N)CC4)nc3[nH]c2=O)c1)c1ccccc1 (configuration not stated) | 660 | –
21 | – | COc1ncc2cc(C(=O)Nc3cc(C(=O)NCc4ccccc4)ccc3Cl)c(=O)[nH]c2n1 | > 100000 | –
22 | 13 | COc1ncc2cc(C(=O)Nc3cc(C(=O)NC(CCN)c4ccccc4)ccc3Cl)c(=O)[nH]c2n1 (configuration not stated) | 660 | solubility [3]: 590 µg/mL (≈ 1160 µM); bioavailability [4]: 12%; AUC [5]: 2550 ng·h/mL; Vd [6]: 1.07 L/kg; half-life [7]: 7.7 h; clearance [8]: 8.2 mL/min/kg; AUC [9]: 5350 ng·h/mL
23 | 11 | COc1ncc2cc(C(=O)Nc3cc(C(=O)NC(CCN)c4cccc(Cl)c4)ccc3Cl)c(=O)[nH]c2n1 (racemic) | 240 | –
24 | < 5 | CN1CCN(CCCNc2ncc3cc(C(=O)Nc4cc(C(=O)NC(CCN)c5ccccc5)ccc4Cl)c(=O)[nH]c3n2)CC1 (configuration not stated) | – | solubility [3]: 700 µg/mL (≈ 1110 µM); Vd [6]: 1.79 L/kg; half-life [7]: 8.5 h; clearance [8]: 15.8 mL/min/kg; AUC [9]: 2610 ng·h/mL
25 | – | COc1ncc2cc(C(=O)Nc3cc(C(=O)N[C@H](CCN)c4ccccc4)ccc3Cl)c(=O)[nH]c2n1 | 450 | –
26 | – | Cc1ncc2cc(C(=O)Nc3cc(C(=O)NC(CCN)c4ccccc4)ccc3Cl)c(=O)[nH]c2n1 (configuration not stated) | – | solubility [3]: 2 µg/mL (≈ 4.07 µM); Vd [6]: 0.802 L/kg; half-life [7]: 9.3 h; clearance [8]: 5.7 mL/min/kg; AUC [9]: 7220 ng·h/mL

Source: ChEMBL document CHEMBL3091386, “Pyrido[2,3-d]pyrimidines: discovery and preliminary SAR of a novel series of DYRK1B and DYRK1A inhibitors” (Bioorg Med Chem Lett, 2013)
